Measurements reported in ChEMBL document CHEMBL4371069, “Click chemistry for improvement in selectivity of quinazoline-based kinase inhibitors for mutant epidermal growth factor receptors” (Bioorg Med Chem Lett, 2019).

Assays:
NCI-H1975 = assay: Antiproliferative activity against human NCI-H1975 cells harboring EGFR T790M/L858R double mutant after 72 hrs by EZ-Cytox assay; type: functional, cell-based; conditions: NCI-H1975, 72 h
PC-9 = assay: Antiproliferative activity against human PC9 cells harboring EGFR exon-19 del mutant after 72 hrs by EZ-Cytox assay; type: functional, cell-based; conditions: PC-9, 72 h
A549 = assay: Antiproliferative activity against human A549 cells harboring wild-type EGFR after 72 hrs by EZ-Cytox assay; type: ADME, cell-based; conditions: A549, 72 h
SK-BR-3 = assay: Antiproliferative activity against HER2-dependant human SKBR3 cells after 72 hrs by EZ-Cytox assay; type: ADME, cell-based; conditions: SK-BR-3, 72 h
[1] = molecular target: Epidermal growth factor receptor (Homo sapiens, UniProt P00533); type: ADME, cell-based, Sf21
Description: Inhibition of human N-terminal GST-tagged EGFR kinase domain (696 to end residues) expressed in baculovirus infected sf21 cells using poly(Glu, Tyr) 4:1 as substrate

[2] = molecular target: Epidermal growth factor receptor (Homo sapiens, UniProt P00533, L858R/T790M); assay: biochemical; type: cell-based, Sf21
[3] = molecular target: Receptor tyrosine-protein kinase erbB-2 (Homo sapiens, UniProt P04626); assay: Inhibition of human C-terminal His6-tagged ERBB2 (676 to end residues) expressed in baculovirus infected sf21 cells using poly(Glu, Tyr) 4:1 as substrate
[4] = Safety index, ratio of compound IC50 to afatinib IC50 for antiproliferative activity against HER2-dependant human SKBR3 cells; type: cell-based; conditions: SK-BR-3 cells (HER2-dependent), read-out: Ratio IC50
HepG2 = assay: Cytotoxicity against human HepG2 cells after 24 hrs by LDH release assay; type: cell-based; conditions: HepG2, 24 h
CYP1A2 = molecular target: T1, CYP1A2 (Homo sapiens, UniProt P05177); assay: Inhibition of CYP1A2 in human liver microsomes assessed as residual activity at 10 uM using phenacetin as substrate preincubated for 5 mins followed by NADPH addition and measured after 15 mins by LC-MS/MS analysis relative to control; type: ADME; conditions: probe phenacetin, read-out: Activity
T1 sequence (P05177 whole entry): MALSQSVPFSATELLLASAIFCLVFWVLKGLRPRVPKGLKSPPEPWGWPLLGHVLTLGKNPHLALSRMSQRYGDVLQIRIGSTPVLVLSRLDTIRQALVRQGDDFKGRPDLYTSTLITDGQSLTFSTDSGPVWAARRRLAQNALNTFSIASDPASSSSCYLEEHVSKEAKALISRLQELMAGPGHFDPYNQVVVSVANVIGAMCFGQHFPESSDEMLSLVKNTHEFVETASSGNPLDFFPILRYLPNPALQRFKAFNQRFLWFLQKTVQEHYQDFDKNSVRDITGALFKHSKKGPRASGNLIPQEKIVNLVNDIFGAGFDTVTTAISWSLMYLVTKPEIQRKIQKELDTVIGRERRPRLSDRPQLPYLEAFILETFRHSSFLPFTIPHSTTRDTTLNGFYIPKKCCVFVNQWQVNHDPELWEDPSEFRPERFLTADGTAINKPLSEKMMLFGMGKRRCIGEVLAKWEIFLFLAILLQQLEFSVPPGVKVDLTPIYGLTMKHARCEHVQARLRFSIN

CYP2A6 = molecular target: T2, CYP2A6 (Homo sapiens, UniProt P11509); assay: Inhibition of CYP2A6 in human liver microsomes assessed as residual activity at 10 uM using coumarin as substrate preincubated for 5 mins followed by NADPH addition and measured after 15 mins by LC-MS/MS analysis relative to control; type: ADME; conditions: probe coumarin, read-out: Activity
T2 sequence (P11509 whole entry): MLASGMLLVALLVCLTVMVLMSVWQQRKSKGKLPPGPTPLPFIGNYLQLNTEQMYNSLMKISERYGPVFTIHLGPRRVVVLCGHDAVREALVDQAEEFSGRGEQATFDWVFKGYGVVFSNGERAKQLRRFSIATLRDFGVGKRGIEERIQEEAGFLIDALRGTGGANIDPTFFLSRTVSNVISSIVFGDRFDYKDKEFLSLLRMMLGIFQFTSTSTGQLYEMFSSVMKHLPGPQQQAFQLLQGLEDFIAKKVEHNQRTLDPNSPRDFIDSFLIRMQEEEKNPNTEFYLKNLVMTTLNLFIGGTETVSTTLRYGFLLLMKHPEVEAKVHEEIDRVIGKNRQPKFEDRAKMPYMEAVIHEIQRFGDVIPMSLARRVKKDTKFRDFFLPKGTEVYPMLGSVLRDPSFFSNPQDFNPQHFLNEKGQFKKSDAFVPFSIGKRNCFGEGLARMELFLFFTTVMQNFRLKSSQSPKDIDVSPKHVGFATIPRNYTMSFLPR

CYP2B6 = molecular target: T3, CYP2B6 (Homo sapiens, UniProt P20813); assay: Inhibition of CYP2B6 in human liver microsomes assessed as residual activity at 10 uM using bupropion as substrate preincubated for 5 mins followed by NADPH addition and measured after 15 mins by LC-MS/MS analysis relative to control; type: ADME; conditions: probe bupropion, read-out: Activity
T3 sequence (P20813 whole entry): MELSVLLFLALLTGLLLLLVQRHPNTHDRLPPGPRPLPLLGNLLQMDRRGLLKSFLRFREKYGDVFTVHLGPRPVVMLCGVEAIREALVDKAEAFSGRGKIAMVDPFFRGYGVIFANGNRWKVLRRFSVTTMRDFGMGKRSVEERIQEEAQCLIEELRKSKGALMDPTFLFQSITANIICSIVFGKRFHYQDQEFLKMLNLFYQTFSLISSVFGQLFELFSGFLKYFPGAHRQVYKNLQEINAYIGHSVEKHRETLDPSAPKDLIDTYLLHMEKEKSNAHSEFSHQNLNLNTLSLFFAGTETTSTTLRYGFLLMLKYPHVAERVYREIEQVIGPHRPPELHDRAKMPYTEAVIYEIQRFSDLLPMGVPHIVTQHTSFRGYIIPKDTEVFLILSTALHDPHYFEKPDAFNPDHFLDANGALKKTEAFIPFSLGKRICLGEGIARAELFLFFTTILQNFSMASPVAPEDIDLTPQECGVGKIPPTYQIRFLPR

CYP2C8 = molecular target: T4, CYP2C8 (Homo sapiens, UniProt P10632); assay: Inhibition of CYP2C8 in human liver microsomes assessed as residual activity at 10 uM using amiodiaquine as substrate preincubated for 5 mins followed by NADPH addition and measured after 15 mins by LC-MS/MS analysis relative to control; type: ADME; conditions: probe amiodiaquine, read-out: Activity
T4 sequence (P10632 whole entry): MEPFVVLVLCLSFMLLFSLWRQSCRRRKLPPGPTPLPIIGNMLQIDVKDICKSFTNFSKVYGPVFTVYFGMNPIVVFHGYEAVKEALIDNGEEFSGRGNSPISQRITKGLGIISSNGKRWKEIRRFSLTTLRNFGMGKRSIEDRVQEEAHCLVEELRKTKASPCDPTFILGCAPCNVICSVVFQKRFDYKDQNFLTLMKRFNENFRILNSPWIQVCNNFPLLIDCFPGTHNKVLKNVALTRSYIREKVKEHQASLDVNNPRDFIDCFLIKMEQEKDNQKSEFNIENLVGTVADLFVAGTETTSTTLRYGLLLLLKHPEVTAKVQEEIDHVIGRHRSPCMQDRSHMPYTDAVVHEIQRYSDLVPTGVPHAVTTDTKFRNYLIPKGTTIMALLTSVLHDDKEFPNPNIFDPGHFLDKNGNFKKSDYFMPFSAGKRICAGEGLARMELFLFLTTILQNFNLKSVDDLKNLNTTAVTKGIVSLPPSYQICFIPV

CYP2C9 = CYP2C9 (Homo sapiens, UniProt P11712); assay: Inhibition of CYP2C9 in human liver microsomes assessed as residual activity at 10 uM using tolbutamide as substrate preincubated for 5 mins followed by NADPH addition and measured after 15 mins by LC-MS/MS analysis relative to control; type: ADME; conditions: probe tolbutamide, read-out: Activity
CYP2C19 = CYP2C19 (Homo sapiens, UniProt P33261); assay: Inhibition of CYP2C19 in human liver microsomes assessed as residual activity at 10 uM using S-mephenytoin as substrate preincubated for 5 mins followed by NADPH addition and measured after 15 mins by LC-MS/MS analysis relative to control; type: ADME; conditions: probe S-mephenytoin, read-out: Activity
CYP2E1 = CYP2E1 (Homo sapiens, UniProt P05181); assay: Inhibition of CYP2E1 in human liver microsomes assessed as residual activity at 10 uM using chlorzoxazone as substrate preincubated for 5 mins followed by NADPH addition and measured after 15 mins by LC-MS/MS analysis relative to control; type: ADME; conditions: probe chlorzoxazone, read-out: Activity
CYP3A4 = CYP3A4 (Homo sapiens, UniProt P08684); assay: Inhibition of CYP3A4 in human liver microsomes assessed as residual activity at 10 uM using midazolam as substrate preincubated for 5 mins followed by NADPH addition and measured after 15 mins by LC-MS/MS analysis relative to control; type: ADME; conditions: probe midazolam, read-out: Activity
CYP3A4, sequence (P08684 whole entry): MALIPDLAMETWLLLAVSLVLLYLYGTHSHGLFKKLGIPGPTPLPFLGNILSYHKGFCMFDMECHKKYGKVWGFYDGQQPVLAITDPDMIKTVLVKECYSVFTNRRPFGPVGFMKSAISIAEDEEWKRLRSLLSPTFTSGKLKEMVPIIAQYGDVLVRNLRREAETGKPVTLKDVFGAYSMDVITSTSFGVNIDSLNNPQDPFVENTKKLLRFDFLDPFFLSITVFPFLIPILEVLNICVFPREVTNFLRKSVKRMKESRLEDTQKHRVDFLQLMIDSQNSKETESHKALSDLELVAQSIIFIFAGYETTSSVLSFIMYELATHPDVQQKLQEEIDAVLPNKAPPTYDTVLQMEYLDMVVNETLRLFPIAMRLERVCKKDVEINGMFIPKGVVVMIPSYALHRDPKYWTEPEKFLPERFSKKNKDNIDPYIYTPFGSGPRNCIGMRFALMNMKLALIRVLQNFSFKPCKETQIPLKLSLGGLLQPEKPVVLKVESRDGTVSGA

Epidermal growth factor receptor (Homo sapiens, UniProt P00533), sequence (P00533 whole entry): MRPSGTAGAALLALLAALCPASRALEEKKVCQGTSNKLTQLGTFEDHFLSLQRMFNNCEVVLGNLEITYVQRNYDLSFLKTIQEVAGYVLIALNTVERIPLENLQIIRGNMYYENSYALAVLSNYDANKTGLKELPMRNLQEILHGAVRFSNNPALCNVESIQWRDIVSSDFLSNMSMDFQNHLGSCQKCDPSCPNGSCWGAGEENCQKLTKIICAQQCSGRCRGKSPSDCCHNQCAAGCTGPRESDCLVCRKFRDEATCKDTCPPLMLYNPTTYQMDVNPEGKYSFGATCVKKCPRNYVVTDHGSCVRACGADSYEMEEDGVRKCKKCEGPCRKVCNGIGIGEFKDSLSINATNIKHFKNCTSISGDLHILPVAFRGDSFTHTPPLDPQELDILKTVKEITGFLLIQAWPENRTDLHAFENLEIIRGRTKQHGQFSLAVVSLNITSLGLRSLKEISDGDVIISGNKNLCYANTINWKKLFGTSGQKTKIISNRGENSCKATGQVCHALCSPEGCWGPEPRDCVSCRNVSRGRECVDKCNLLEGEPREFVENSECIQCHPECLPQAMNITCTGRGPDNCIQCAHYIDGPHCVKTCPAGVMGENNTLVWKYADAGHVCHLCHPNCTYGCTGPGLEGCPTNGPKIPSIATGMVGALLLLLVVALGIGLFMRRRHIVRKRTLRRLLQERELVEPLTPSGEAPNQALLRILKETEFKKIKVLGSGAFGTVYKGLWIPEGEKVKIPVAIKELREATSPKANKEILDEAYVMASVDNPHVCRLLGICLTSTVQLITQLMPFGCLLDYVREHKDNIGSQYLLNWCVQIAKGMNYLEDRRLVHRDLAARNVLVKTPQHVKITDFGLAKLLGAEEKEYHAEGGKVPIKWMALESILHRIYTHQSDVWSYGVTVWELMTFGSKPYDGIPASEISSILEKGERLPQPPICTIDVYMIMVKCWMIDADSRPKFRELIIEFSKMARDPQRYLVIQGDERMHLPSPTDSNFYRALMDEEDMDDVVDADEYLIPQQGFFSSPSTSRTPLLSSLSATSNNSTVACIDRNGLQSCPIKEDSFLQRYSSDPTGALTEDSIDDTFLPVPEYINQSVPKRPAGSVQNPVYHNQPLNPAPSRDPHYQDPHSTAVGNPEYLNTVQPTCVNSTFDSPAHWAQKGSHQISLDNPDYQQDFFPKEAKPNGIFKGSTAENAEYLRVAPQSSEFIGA
Epidermal growth factor receptor (Homo sapiens, UniProt P00533, L858R/T790M), sequence (P00533 25-1210 T790M/L858R limits assumed): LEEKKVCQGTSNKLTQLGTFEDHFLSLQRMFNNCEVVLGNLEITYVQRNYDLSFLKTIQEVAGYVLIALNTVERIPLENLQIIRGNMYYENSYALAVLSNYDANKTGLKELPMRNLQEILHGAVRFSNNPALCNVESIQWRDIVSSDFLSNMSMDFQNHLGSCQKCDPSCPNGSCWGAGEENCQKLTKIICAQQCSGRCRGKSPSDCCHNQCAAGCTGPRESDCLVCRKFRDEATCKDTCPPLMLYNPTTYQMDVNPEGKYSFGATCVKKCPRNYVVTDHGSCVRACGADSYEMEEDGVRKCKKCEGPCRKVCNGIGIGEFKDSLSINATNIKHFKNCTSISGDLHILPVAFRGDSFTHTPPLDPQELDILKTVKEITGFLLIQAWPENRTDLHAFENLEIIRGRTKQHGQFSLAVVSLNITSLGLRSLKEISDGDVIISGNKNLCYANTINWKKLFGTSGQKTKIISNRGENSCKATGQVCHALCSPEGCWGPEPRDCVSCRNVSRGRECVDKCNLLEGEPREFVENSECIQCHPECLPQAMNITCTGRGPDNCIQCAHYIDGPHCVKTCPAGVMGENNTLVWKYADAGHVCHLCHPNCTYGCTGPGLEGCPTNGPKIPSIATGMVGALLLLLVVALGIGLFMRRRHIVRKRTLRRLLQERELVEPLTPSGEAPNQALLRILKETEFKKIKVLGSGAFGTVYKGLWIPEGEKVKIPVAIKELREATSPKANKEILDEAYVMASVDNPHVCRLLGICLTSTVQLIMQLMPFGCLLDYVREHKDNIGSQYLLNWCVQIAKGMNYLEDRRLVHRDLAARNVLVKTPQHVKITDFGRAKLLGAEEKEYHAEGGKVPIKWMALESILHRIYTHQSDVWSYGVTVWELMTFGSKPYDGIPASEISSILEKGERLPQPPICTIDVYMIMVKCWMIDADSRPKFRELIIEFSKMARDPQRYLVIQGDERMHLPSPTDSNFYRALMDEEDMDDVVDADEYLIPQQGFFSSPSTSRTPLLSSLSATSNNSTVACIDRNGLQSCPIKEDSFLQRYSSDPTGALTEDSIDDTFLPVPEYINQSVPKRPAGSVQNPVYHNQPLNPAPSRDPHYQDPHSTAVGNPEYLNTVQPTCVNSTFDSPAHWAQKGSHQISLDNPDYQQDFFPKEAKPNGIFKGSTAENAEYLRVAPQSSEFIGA
Receptor tyrosine-protein kinase erbB-2, sequence (P04626 whole entry): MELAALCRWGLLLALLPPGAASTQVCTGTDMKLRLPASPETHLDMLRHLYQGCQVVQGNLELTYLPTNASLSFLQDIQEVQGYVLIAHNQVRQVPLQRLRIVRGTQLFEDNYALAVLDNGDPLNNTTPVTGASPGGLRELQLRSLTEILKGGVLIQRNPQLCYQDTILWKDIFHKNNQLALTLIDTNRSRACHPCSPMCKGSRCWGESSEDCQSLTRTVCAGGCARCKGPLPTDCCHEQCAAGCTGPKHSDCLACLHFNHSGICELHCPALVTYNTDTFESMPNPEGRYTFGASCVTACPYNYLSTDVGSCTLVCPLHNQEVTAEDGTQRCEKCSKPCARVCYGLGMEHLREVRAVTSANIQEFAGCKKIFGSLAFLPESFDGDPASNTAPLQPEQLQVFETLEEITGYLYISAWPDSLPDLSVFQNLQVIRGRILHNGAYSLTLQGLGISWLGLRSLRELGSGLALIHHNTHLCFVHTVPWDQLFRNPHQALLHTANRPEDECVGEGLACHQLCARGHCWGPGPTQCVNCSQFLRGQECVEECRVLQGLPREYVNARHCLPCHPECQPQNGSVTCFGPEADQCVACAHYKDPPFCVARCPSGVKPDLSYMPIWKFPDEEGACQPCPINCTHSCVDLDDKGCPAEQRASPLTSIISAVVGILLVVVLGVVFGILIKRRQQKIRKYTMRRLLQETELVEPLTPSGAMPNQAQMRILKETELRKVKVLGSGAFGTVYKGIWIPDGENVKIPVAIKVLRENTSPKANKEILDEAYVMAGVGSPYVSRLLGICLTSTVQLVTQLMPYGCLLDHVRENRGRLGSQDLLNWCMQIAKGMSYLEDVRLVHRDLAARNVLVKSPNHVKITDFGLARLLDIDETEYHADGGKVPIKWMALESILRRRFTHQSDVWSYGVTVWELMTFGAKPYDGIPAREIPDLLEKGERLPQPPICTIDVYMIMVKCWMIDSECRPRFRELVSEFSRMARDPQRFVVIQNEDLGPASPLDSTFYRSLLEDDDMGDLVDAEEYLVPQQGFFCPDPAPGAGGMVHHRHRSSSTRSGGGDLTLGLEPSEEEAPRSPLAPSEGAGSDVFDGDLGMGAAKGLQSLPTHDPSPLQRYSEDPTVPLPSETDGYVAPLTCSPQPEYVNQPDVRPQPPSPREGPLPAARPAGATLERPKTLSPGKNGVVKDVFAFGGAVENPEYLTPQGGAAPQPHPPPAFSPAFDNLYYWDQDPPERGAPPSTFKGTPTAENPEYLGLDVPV
CYP2C9, sequence (P11712 whole entry): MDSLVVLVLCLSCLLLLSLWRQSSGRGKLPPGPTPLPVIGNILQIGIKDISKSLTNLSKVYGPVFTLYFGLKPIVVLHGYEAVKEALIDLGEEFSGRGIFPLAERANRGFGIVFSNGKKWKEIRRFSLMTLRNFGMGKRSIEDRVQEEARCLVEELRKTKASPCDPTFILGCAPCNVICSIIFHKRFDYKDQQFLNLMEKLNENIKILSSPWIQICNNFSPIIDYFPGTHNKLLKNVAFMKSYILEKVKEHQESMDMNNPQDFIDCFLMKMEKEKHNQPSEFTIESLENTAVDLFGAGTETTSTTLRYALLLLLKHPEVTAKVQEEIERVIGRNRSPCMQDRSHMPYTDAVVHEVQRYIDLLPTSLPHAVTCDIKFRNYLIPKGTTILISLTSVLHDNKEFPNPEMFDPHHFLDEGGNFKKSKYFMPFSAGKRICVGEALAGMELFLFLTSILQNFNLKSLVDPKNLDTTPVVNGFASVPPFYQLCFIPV

SMILES | IC50 (NCI-H1975) [nM] | IC50 (PC-9) [nM] | IC50 (A549) [nM] | IC50 (SK-BR-3) [nM] | IC50 [1] [nM] | IC50 [2] [nM] | IC50 [3] [nM] | further results
CN(C)C/C=C/C(=O)Nc1cc2c(Nc3ccc(F)c(Cl)c3)ncnc2cc1O[C@H]1CCOC1 [AFATINIB] | 131 | 0.1 | 3770 | 1.2 |  |  |  | 
C=CC(=O)Nc1cc2c(Nc3ccc(F)c(Cl)c3)ncnc2cc1OCc1cn(Cc2ccc(C)cc2)nn1 | 417 | 1.3 | 737 | 216 | 105 | 15 | 158 | selectivity ratio [4]: > 95
C=CC(=O)Nc1cc2c(Nc3ccc(F)c(Cl)c3)ncnc2cc1OCc1cn(CCc2ccccc2)nn1 | 2090 | 3.6 |  |  | 41 | 12 | 448 | 
C=CC(=O)Nc1cc2c(Nc3ccc(F)c(Cl)c3)ncnc2cc1OCc1cn(Cc2ccc(OC)cc2)nn1 | 701 | 1.1 |  |  | 41 | 5 | 212 | 
C=CC(=O)Nc1cc2c(Nc3ccc(F)c(Cl)c3)ncnc2cc1OCc1cn(Cc2ccccc2F)nn1 | 619 | 1.2 |  |  | 65 | 12 | 78 | 
COC(=O)C1=C(C)NC(C)=C(C(=O)OC)C1c1ccccc1[N+](=O)[O-] [NIFEDIPINE] |  |  |  |  |  |  |  | IC50 (HepG2): 9400 nM
C=CC(=O)Nc1cc2c(Nc3ccc(F)c(Cl)c3)ncnc2cc1OCc1cn(-c2ccccc2)nn1 | 4780 | 32 |  |  | 74 | 26 | 471 | 
C=CC(=O)Nc1cc2c(Nc3ccc(F)c(Cl)c3)ncnc2cc1OCc1cn(CCCN2CCOCC2)nn1 | 341 | 0.6 | 8160 | 19 | 12 | 4 | 54 | 
C=CC(=O)Nc1cc2c(Nc3ccc(F)c(Cl)c3)ncnc2cc1OCc1cn(CCCO)nn1 | 1370 | 1.5 |  |  | 12 | 4 | 67 | 
C#CCOc1cc2ncnc(Nc3ccc(F)c(Cl)c3)c2cc1NC(=O)C=C | 1590 | 2.9 | > 10000 | 106 |  |  |  | 
CC(=O)N1CCN(c2ccc(OCC3COC(Cn4ccnc4)(c4ccc(Cl)cc4Cl)O3)cc2)CC1 (configuration not stated) [KETOCONAZOLE] |  |  |  |  |  |  |  | activity at 0.25 h, 10 µM (CYP1A2): 92.5%; activity at 0.25 h, 10 µM (CYP2A6): 91.8%; activity at 0.25 h, 10 µM (CYP2B6): 84.1%; activity at 0.25 h, 10 µM (CYP2C8): 95.6%; activity at 0.25 h, 10 µM (CYP2C9): 85%; activity at 0.25 h, 10 µM (CYP2C19): 85.8%; activity at 0.25 h, 10 µM (CYP2E1): 98.1%; activity at 0.25 h, 10 µM (CYP3A4): 35.7%
C=CC(=O)Nc1cc2c(Nc3ccc(F)c(Cl)c3)ncnc2cc1OCc1cn(Cc2ccccc2)nn1 | 808 | 1.2 |  |  | 39 | 8 | 90 | 
